Laboratory results from ChEMBL document CHEMBL6153082, “Macrocyclization as a Strategy for Kinetic Solubility Improvement: A Comparative Analysis of Matched Molecular Pairs” (J Med Chem, 2025).
≈ marks a conversion by molar mass, not a printed value.

Experiments:
[1] = Lipophilicity, logD of the compound in n-octanol/aqueous at pH 7.4 incubated overnight by UPLC analysis; format: physicochemical
[2] = Apparent permeability across basolateral to apical side in MDCK cells; format: ADME, cell-based, Canis lupus familiaris; settings: dog
[3] = Metabolic stability in mouse liver microsomes assessed as half life in presence of NADPH incubated for 30 mins by LC-MS/MS analysis; format: ADME, Microsome
[4] = Solubility of compound at pH 7.4; format: physicochemical; settings: buffer
[5] = Efflux ratio in dog MDCK cells; format: ADME, cell-based, Canis lupus familiaris
[6] = Unbound fraction in mouse microsome incubated for 4 hrs by LC-MS/MS analysis; format: ADME; settings: microsomes
[7] = Apparent permeability across apical to basolateral side in MDCK cells; format: ADME, cell-based, Canis lupus familiaris; settings: dog
[8] = Dissociation constant, pKa of the compound by potentiometric titration analysis; format: physicochemical
[9] = Kinetic aqueous solubility of compound at pH 7.4 at 5 to 300 uM; format: physicochemical; settings: dose 5-300 µM, read-out: Kinetic_solubility

| SMILES | logD [1] | Papp [2] | half-life [3] | solubility [4] | Ratio [5] | fraction unbound at 4 h [6] | Papp [7] | pKa [8] | solubility kinetic [9] | Papp B→A [2] | efflux ratio [5] | Papp A→B [7] |
| --- | --- | --- | --- | --- | --- | --- | --- | --- | --- | --- | --- | --- |
| CCC[C@@H](NC(=O)c1cccnc1OC)C(=O)N1CCC(CCN(CCOC)C2CCN(C)CC2)CC1 | 0.8 | 88 10^-6 cm/s | 103 min | 303 µM (≈ 157 µg/mL) | 38 | 0.77 | 93 10^-6 cm/s |  |  |  |  |  |
| CCOc1ccccc1C(=O)N1CCN(C2CCCC2)C[C@@H]1C(=O)NC[C@H]1CCCCO1 | 2.5 | 50 10^-6 cm/s | 120 min | 303 µM (≈ 134 µg/mL) | 29 | 0.68 | 32 10^-6 cm/s |  |  |  |  |  |
| CCOc1ccccc1C(=O)N1CCN(Cc2ccccc2)C[C@@H]1C(=O)NC[C@H]1CCCCO1 | 3.2 | 49 10^-6 cm/s | 120 min | 287 µM (≈ 134 µg/mL) | 69 | 1 | 32 10^-6 cm/s | 7.4 |  |  |  |  |
| COc1cc2cc(c1OC)O[C@@H](C)CCn1cc(nn1)CCCCOC(=O)[C@@H]1CCCCN1C(=O)[C@H]2C1CCCCC1 |  |  |  |  |  |  |  |  | 100 µM (≈ 58.3 µg/mL) |  |  |  |
| CCOc1ccccc1C(=O)N1CCN(Cc2ccccc2)C[C@@H]1C(=O)NC[C@@H]1CCCCO1 | 3.2 | 49 10^-6 cm/s | 1 min | 237 µM (≈ 110 µg/mL) | 21 | 1 | 33 10^-6 cm/s | 7.4 |  |  |  |  |
| C=CCOc1ccccc1CN(CC(=O)N1CCC(CC(=O)NC2CC2)CC1)C1CCN(C)CC1 | 0.5 | 11 10^-6 cm/s | 120 min | 244 µM (≈ 118 µg/mL) | 2 | 0.76 | 1 10^-6 cm/s |  |  |  |  |  |
| CCCc1cn(CCCOc2cc([C@@H](C(=O)N3CCCC[C@H]3C(=O)OC)C3CCCCC3)cc(OC)c2OC)nn1 |  |  |  |  |  |  |  |  | 65 µM (≈ 37.1 µg/mL) |  |  |  |
| COc1cc2cc(OC)c1OCCCCOC(=O)[C@@H]1CCCCN1C(=O)[C@H]2C1CCCCC1 |  |  |  |  |  |  |  |  | 137 µM (≈ 63 µg/mL) |  |  |  |
| CCC[C@H]1NC(=O)c2cccnc2OCCOCCN(C2CCCC2)CC2CCN(CC2)C1=O | 1.5 |  | 7.4 min | 303 µM (≈ 143 µg/mL) |  |  |  |  |  | 56 ×10⁻⁶ cm/s | 5.4 | 10 ×10⁻⁶ cm/s |
| C=CCOC(=O)[C@@H]1CCCCN1C(=O)[C@H](c1cc(OC)c(OC)c(OC)c1)C1CCCCC1 |  |  |  |  |  |  |  |  | 12 µM (≈ 5.51 µg/mL) |  |  |  |
| CCCc1cn(CC[C@H](C)Oc2cc([C@@H](C(=O)N3CCCC[C@H]3C(=O)OC)C3CCCCC3)cc(OC)c2OC)nn1 |  |  |  |  |  |  |  |  | 65 µM (≈ 38 µg/mL) |  |  |  |
| C=CCOc1ccccc1CN(CC(=O)N1CCC(CC(=O)NC2CC2)CC1)Cc1ccccc1 | 3.8 | 33 10^-6 cm/s | 1 min | 83.5 µM (≈ 39.7 µg/mL) | 66 | 0.57 | 8 10^-6 cm/s |  |  |  |  |  |
| CCCOC(=O)[C@@H]1CCCCN1C(=O)[C@H](c1cc(OC)c(OC)c(OC)c1)C1CCCCC1 |  |  |  |  |  |  |  |  | 45 µM (≈ 20.8 µg/mL) |  |  |  |
| C=CCOc1ccccc1CN(CC(=O)N1CCC(CC(=O)NC2CC2)CC1)C(C)C | 1 | 57 10^-6 cm/s | 16 min | 167 µM (≈ 71.4 µg/mL) | 2 | 1 | 2 10^-6 cm/s |  |  |  |  |  |
| CCOc1ccccc1C(=O)N1CCN(C2CCCC2)C[C@@H]1C(=O)NC[C@@H]1CCCCO1 | 2.5 | 44 10^-6 cm/s | 1 min | 170 µM (≈ 75.4 µg/mL) | 12 | 0.68 | 29 10^-6 cm/s |  |  |  |  |  |
| COc1cc2cc(c1OC)OC/C=C/COC(=O)[C@@H]1CCCCN1C(=O)[C@H]2C1CCCCC1 |  |  |  |  |  |  |  |  | 103 µM (≈ 47.1 µg/mL) |  |  |  |
| C=CCOc1ccccc1CN(CC(=O)N1CCC(CC(=O)NC2CC2)CC1)C1CCCC1 | 1.8 | 68 10^-6 cm/s | 5 min | 192 µM (≈ 87.1 µg/mL) | 4 | 1 | 3 10^-6 cm/s |  |  |  |  |  |
| COc1cc2cc(c1OC)OCCCn1cc(nn1)CCCCOC(=O)[C@@H]1CCCCN1C(=O)[C@H]2C1CCCCC1 |  |  |  |  |  |  |  |  | 100 µM (≈ 56.9 µg/mL) |  |  |  |
